Measurements from patent US10040791B2, “Isoxazole derivative as mutant isocitrate dehydrogenase 1 inhibitor” (Daiichi Sankyo Company, Limited, priority 2014, dated 2018).

How the values were obtained:
IDH1R132C = IDH1R132C (Homo sapiens (Human), UniProt O75874, R132C); assay: Inhibitory activity against IDH1R132C enzyme (NADPH detection, WST-8); type: biochemical; conditions: 10 nM, residual NADPH detected with WST-8, read-out: Test Example 1 IDH1 R132C IC50
[1] = tested on: HT-1080 cells expressing IDH1R132C; assay: 2-HG production inhibitory activity using HT1080 cell; type: cell-based, human; conditions: Homo sapiens, HT-1080; 2-HG production, HT1080 cells; read-out: Test Example 3 IC50
Method: Then, 100 μL of growth medium B was added to each well, further 25 μL of a solution of each compound diluted to a predetermined concentration with growth medium B was added to each well, and the cells were incubated at 37° C. for 2 days under 5% CO2. […] Then, 150 μL of ultrapure water was further added to each well, and the mixture was stirred by pipetting and stored at −20° C.
The preserved solutions were thawed at room temperature.

[2] = tested on: HT1080 xenografted mice (IDH1R132C); assay: 2-HG production inhibitory activity using HT1080 xenografted mice; type: in vivo, mouse; conditions: Mus musculus, HT-1080, po, 6 h, 2-HG production, HT1080 xenografted mice; read-out: Test Example 5 Ratio (%)
In short: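 Mice bearing HT1080 tumors received 75 mg/kg compound by oral gavage twice a day, three doses in total, at 10 mL/kg; vehicle-dosed mice were negative controls. Tumors were collected 6 h after the final dose, frozen, homogenized in methanol and centrifuged, and 2-HG was measured in the extracts.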

Chain of IDH1R132C (O75874 whole entry R132C): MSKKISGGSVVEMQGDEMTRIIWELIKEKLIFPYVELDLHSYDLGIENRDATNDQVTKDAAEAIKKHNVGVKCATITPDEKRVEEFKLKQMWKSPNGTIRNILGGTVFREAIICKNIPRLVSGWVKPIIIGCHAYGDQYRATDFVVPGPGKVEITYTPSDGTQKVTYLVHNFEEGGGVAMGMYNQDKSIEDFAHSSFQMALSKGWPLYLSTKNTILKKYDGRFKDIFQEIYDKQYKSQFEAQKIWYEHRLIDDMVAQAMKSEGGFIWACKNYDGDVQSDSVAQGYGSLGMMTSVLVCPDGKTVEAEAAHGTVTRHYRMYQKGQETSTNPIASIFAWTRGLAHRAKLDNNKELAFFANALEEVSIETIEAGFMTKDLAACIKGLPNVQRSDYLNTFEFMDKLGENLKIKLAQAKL

Row | SMILES | IC50 (IDH1R132C) [nM] | IC50 [1] [nM] | response vs control in vivo at 75 mg/kg [2] [%]
1 | C=CC(=O)N1CCC(c2onc(-c3c(Cl)cc(Cl)cc3Cl)c2C(=O)n2cc(C)c3c(CCC(=O)O)cccc32)CC1 [Example 115] | 301 | 32 | 12
2 | C=CC(=O)N1CCC(OC)(c2onc(-c3c(Cl)cc(Cl)cc3Cl)c2C(=O)n2cc(C)c3c(/C=C/C(=O)O)cccc32)CC1 [Example 117] | 117 | 2 | 10
3 | C=CC(=O)N1CCC(c2onc(-c3c(Cl)cc(Cl)cc3Cl)c2C(=O)n2ncc3c(/C=C/C(=O)O)cccc32)CC1 [Example 118] | 625 | 97 | 87
4 | C/C=C/C(=O)N1CCC(c2onc(-c3c(Cl)cc(Cl)cc3Cl)c2C(=O)n2cc(C)c3c(/C=C/C(=O)O)cccc32)CC1 [Example 119] | 190 | 30 | 12
5 | C=CC(=O)N1CCC(COC)(c2onc(-c3c(Cl)cc(Cl)cc3Cl)c2C(=O)n2ccc3c(/C=C/C(=O)O)cccc32)CC1 [Example 120] | 357 | 51 | 31
6 | C=CC(=O)N1CCC(c2onc(-c3c(C)cc(Cl)cc3C)c2C(=O)n2cc(C)c3c(/C=C/C(=O)O)cccc32)CC1 [Example 122] | 94 | 6 | 29
7 | C=CC(=O)N1CCC(c2onc(-c3c(Cl)cc(Cl)cc3Cl)c2C(=O)n2cc3c4c(cccc42)C(CC(=O)O)CC3)CC1 (stereo not drawn) [Example 125] | 454 | 78 | 72
8 | C=CC(=O)N1CCC(c2onc(-c3cc(F)c(Cl)cc3Cl)c2C(=O)n2cc3c4c(cccc42)/C(=C/C(=O)O)CC3)CC1 [Example 128] | 91 | 3 | 1
9 | C=CC(=O)N1CCC(c2onc(-c3ccc(Cl)cc3Cl)c2C(=O)n2cc3c4c(cccc42)/C(=C/C(=O)O)CC3)CC1 [Example 131, (2E)-[1-{[5-(1-Acryloylpiperidin-4-yl)-3-(2,4-dichlorophenyl)-1,2-oxazol-4-yl]carbonyl}-3,4-dihydrobenzo[cd]indol-5(1H)-ylidene]ethanoic acid] | 133 | 4 | 3
10 | C=CC(=O)N1CCN(c2onc(-c3c(Cl)cccc3Cl)c2C(=O)n2ccc3c(/C=C/C(=O)O)cccc32)[C@H](C)C1 [Example 141, (2E)-3-[1-({5-[(2R)-4-Acryloyl-2-methylpiperazin-1-yl]-3-(2,6-dichlorophenyl)-1,2-oxazol-4-yl}carbonyl)-1H-indol-4-yl]prop-2-enoic acid] | 137 | 190 | 36
11 | C=CC(=O)N1CCN(c2onc(-c3c(Cl)cc(Cl)cc3Cl)c2C(=O)n2ccc3c(/C=C/C(=O)O)cccc32)CC1 [Example 143, (2E)-3-(1-{[5-(4-Acryloylpiperazin-1-yl)-3-(2,4,6-trichlorophenyl)-1,2-oxazol-4-yl]carbonyl}-1H-indol-4-yl)prop-2-enoic acid] | 150 | 148 | 60
12 | C=CC(=O)N1C[C@@H](C)N(c2onc(-c3c(Cl)cccc3Cl)c2C(=O)n2ccc3c(/C=C/C(=O)O)cccc32)[C@@H](C)C1 [Example 144, (2E)-3-(1-{[5-(4-Acryloyl-cis-2,6-dimethylpiperazin-1-yl)-3-(2,6-dichlorophenyl)-1,2-oxazol-4-yl]carbonyl}-1H-indol-4-yl)prop-2-enoic acid] | 151 | 107 | 34
13 | C=CC(=O)N1CCN(c2onc(-c3c(Cl)cccc3Cl)c2C(=O)n2ccc3c(/C=C/C(=O)O)cccc32)C2(CC2)C1 [Example 147, (2E)-3-(1-{[5-[7-Acryloyl-4,7-diazaspiro[2.5]oct-4-yl]-3-(2,6-dichlorophenyl)-1,2-oxazol-4-yl]carbonyl}-1H-indol-4-yl)prop-2-enoic acid] | 78 | 219 | 18
14 | C=CS(=O)(=O)N1CCN(c2onc(-c3c(Cl)cccc3Cl)c2C(=O)n2ccc3c(/C=C/C(=O)O)cccc32)CC1 [Example 149, (2E)-3-[1-({3-(2,6-Dichlorophenyl)-5-[4-(ethenylsulfonyl)piperazin-1-yl]-1,2-oxazol-4-yl}carbonyl)-1H-indol-4-yl]prop-2-enoic acid] | 132 | 278 | 96
15 | C=CC(=O)N1C[C@@H](C)N(c2onc(-c3c(Cl)cc(Cl)cc3Cl)c2C(=O)n2ccc3c(/C=C/C(=O)O)cccc32)[C@@H](C)C1 [Example 151, (2E)-3-(1-{[5-(4-Acryloyl-cis-2,6-dimethylpiperazin-1-yl)-3-(2,4,6-trichlorophenyl)-1,2-oxazol-4-yl]carbonyl}-1H-indol-4-yl)prop-2-enoic acid] | 168 | 41 | 60
16 | C=CC(=O)N1C[C@@H](C)N(c2onc(-c3c(Cl)cc(Cl)cc3Cl)c2C(=O)n2ccc3c(/C=C/C(=O)O)cccc32)C[C@H]1C [Example 152, (2E)-3-[1-({5-[(2R,5R)-4-Acryloyl-2,5-dimethylpiperazin-1-yl]-3-(2,4,6-trichlorophenyl)-1,2-oxazol-4-yl}carbonyl)-1H-indol-4-yl]prop-2-enoic acid] | 222 | 276 | 87
17 | C=CC(=O)N1CCN(c2onc(-c3c(Cl)cccc3Cl)c2C(=O)n2ccc3c(/C=C/C(=O)O)cccc32)[C@H](C2CC2)C1 [Example 154, (2E)-3-[1-({5-[(2R)-4-Acryloyl-2-cyclopropylpiperazin-1-yl]-3-(2,6-dichlorophenyl)-1,2-oxazol-4-yl}carbonyl)-1H-indol-4-yl]prop-2-enoic acid] | 235 | 294 | 45

Continued by falling IC50 (IDH1R132C), values first:

Row | IC50 (IDH1R132C) [nM] | IC50 [1] [nM] | SMILES | response vs control in vivo at 75 mg/kg [2] [%]
18 | 471 | 42 | C=CC(=O)N1CCC(c2onc(-c3c(Cl)cc(Cl)cc3Cl)c2C(=O)n2ccc3c(/C=C(\C)C(=O)O)cccc32)CC1 [Example 116] | 57
19 | 225 | 114 | C=CC(=O)N1CCN(c2onc(-c3c(Cl)cc(Cl)cc3Cl)c2C(=O)n2ccc3c(/C=C/C(=O)O)cccc32)C[C@H]1C [Example 148, (2E)-3-[1-({5-[(3R)-4-Acryloyl-3-methylpiperazin-1-yl]3-(2,4,6-trichlorophenyl)-1,2-oxazol-4-yl}carbonyl)-1H-indol-4-yl]prop-2-enoic acid] | 50
20 | 214 | 820 | C=CC(=O)N1CCN(c2onc(-c3c(Cl)cccc3Cl)c2C(=O)n2ccc3c(/C=C/C(=O)O)cccc32)[C@@H](C)C1 [Example 145, (2E)-3-[1-({5-[(2S)-4-Acryloyl-2-methylpiperazin-1-yl]-3-(2,6-dichlorophenyl)-1,2-oxazol-4-yl}carbonyl)-1H-indol-4-yl]prop-2-enoic acid] | 56
21 | 143 | 14 | C=CC(=O)N1CCC(c2onc(-c3ccc(Cl)c(F)c3Cl)c2C(=O)n2cc3c4c(cccc42)/C(=C/C(=O)O)CC3)CC1 [Example 130, (2E)-[1-{[5-(1-Acryloylpiperidin-4-yl)-3-(2,4-dichloro-3-fluorophenyl)-1,2-oxazol-4-yl]carbonyl}-3,4-dihydrobenzo[cd]indol-5(1H)-ylidene]ethanoic acid] | 5
22 | 123 | 134 | C=CC(=O)N1CCN(c2onc(-c3c(Cl)cccc3Cl)c2C(=O)n2ccc3c(/C=C/C(=O)O)cccc32)CC1 [Example 142, (2E)-3-(1-{[5-(4-Acryloylpiperazin-1-yl)-3-(2,6-dichlorophenyl)-1,2-oxazol-4-yl]carbonyl}-1H-indol-4-yl)prop-2-enoic acid] | 56
23 | 122 | 55 | C=CC(=O)N1CC2(CC2)N(c2onc(-c3c(Cl)cccc3Cl)c2C(=O)n2ccc3c(/C=C/C(=O)O)cccc32)C[C@H]1C [Example 155, (2E)-3-[1-({5-[(6R)7-Acryloyl-6-methyl-4,7-diazaspiro[2.5]oct-4-yl]-3-(2,6-dichlorophenyl)-1,2-oxazol-4-yl}carbonyl)-1H-indol-4-yl]prop-2-enoic acid] | 41
24 | 110 | 8 | C=CC(=O)N1CCC(c2onc(-c3cc(F)c(Cl)cc3Cl)c2C(=O)n2cc(C)c3c(/C=C/C(=O)O)cccc32)CC1 [Example 121] | 8
25 | 98 | 41 | C=CC(=O)N1CCN(c2onc(-c3c(Cl)cc(Cl)cc3Cl)c2C(=O)n2ccc3c(/C=C/C(=O)O)cccc32)C2(CC2)C1 [Example 150, (2E)-3-(1-{[5-[7-Acryloyl-4,7-diazaspiro[2.5]oct-4-yl]-3-(2,4,6-trichlorophenyl)-1,2-oxazol-4-yl]carbonyl}-1H-indol-4-yl)prop-2-enoic acid] | 18
26 | 81 | 3 | C=CC(=O)N1CCC(c2onc(-c3c(C)cc(C)cc3C)c2C(=O)n2cc(C)c3c(/C=C/C(=O)O)cccc32)CC1 [Example 114] | 12
